According to PubChem BioAssay (NCI):
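Following 48 hours of exposure in 96-well plates, responses at five concentrations were used to interpolate endpoints linearly. TGI is the concentration that stops growth completely.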

Legend:
Test in all cases: DTP human tumour cell line panel, 48 h
DU-145 prostate = test system: DU-145 prostate
MALME-3M melanoma = test system: MALME-3M melanoma
NCI-H460 lung = test system: NCI-H460 lung
HOP-92 NSCLC = test system: HOP-92 NSCLC
MCF7 breast = test system: MCF7 breast
M14 melanoma = test system: M14 melanoma
HS 578T breast = test system: HS 578T breast
SK-MEL-28 melanoma = test system: SK-MEL-28 melanoma
UO-31 renal = test system: UO-31 renal
SF-295 CNS = test system: SF-295 CNS

Row | SMILES | TGI (DU-145 prostate) [µM] | TGI (MALME-3M melanoma) [µM] | TGI (NCI-H460 lung) [µM] | TGI (HOP-92 NSCLC) [µM] | TGI (MCF7 breast) [µM] | TGI (M14 melanoma) [µM] | TGI (HS 578T breast) [µM] | TGI (SK-MEL-28 melanoma) [µM] | TGI (UO-31 renal) [µM] | TGI (SF-295 CNS) [µM]
1 | CCOP(=O)(OCC)C(Cc1cn(S(=O)(=O)c2ccc(C)cc2)cn1)C(=O)O (stereo not given) | > 100 | > 100 | > 100 | > 100 | > 100 | > 100 | > 100 | > 100 | > 100 | > 100
2 | COc1cc(/C=[N+](\[O-])c2ccccc2Cl)ccc1OC(=S)S | > 100 | > 100 | > 100 | 49.2 | > 100 | > 100 | > 100 | > 100 | > 100 | > 100
3 | Nc1ccc(Oc2ccc(C34CC5CC(C3)CC(c3ccc(Oc6ccc(N)c(O)c6)cc3)(C5)C4)cc2)cc1O | 3.3 | 6.24 | 3.37 | 4.48 | 8.95 | 3.05 | 4.97 | 6.21 | 3.23 | 5.1
4 | Nc1nc(Cl)cc(Oc2ccc(Cl)cc2)n1 | > 100 | > 100 | > 100 | > 100 | > 100 | > 100 | > 100 | > 100 | > 100 | > 100
5 | C#CCn1c(=O)c2cc(OC)c(OC)cc2n(CC#C)c1=O | > 10 | > 10 | > 10 | > 10 | > 10 | > 10 | > 10 | > 10 | > 10 | > 10
6 | COc1c(C(=O)CC2c3c(cc4oc(C)cc(=O)c4c3OC)OC(=N)C2c2nc3ccccc3[nH]2)c(O)c(OC)c2occc12 (stereo not given) | > 100 | > 100 | > 100 | > 100 | > 100 | > 100 | > 100 | > 100 | > 100 | > 100
7 | COc1cc([C@@H]2c3cc4c(cc3[C@H](OC3OC5COC(C(C)C)OC5C(O)C3O)C3COC(=O)[C@@H]32)OCO4)cc(OC)c1OC (stereo not given in full) | 55.5 | 30.5 | 7.18 | 24.6 | 13.2 | > 33 | > 30.9 | > 100 | 42.1 | > 23.8
8 | Cc1[nH]c(-c2ccccc2)c(O)c1C(=O)OC1CC(C)CCC1C(C)C (stereo not given) | 29.7 | 32.9 | 28.6 | 32.7 | 14.9 | 29 | 39 | 29.8 | 26 | 24.8
9 | CCCCCCCCC/C=C1/CC(CO)(COC(=O)C2CCCCC2)OC1=O (stereo not given) | > 100 | > 100 | > 100 | > 100 | > 100 | > 100 | > 100 | > 100 | > 100 | > 100
10 | COc1ccc2cc(CNCCOCCOCCNCc3ccc4cc(OC)ccc4c3)ccc2c1 | 3.15 | 2.83 | 1.51 | 3.05 | 2.5 | 0.687 | 3.46 | 2.69 | 2.61 | 2.59
11 | O=c1oc2c(Cl)cc(Cl)cc2cc1-c1cn2c(n1)sc1ccccc12 | > 100 | > 100 | > 100 | > 100 | > 100 | > 100 | > 100 | > 100 | > 100 | > 100
12 | Clc1ccc(CCNCCNC2(c3cc4ccccc4s3)CCCCC2)cc1Cl | 3.88 | 3.44 | 3.16 | 3.15 | 3.18 | 3.97 | 4.52 | 3.24 | 3.46 | 3.04
13 | CCOC(=O)/C(C(N)=O)=C(/O)c1cnccn1 | > 100 | > 100 | > 100 | > 100 | > 100 | > 100 | > 100 | > 100 | > 100 | > 100
14 | COc1cc2c(cc1OC)C/C(=N\O)c1cc(OC)c(OC)cc1/C=C\2 | > 64 | 9.9 | > 29.4 | > 100 | > 96.4 | 27.2 | 15.1 | > 45 | > 69.7 | > 61
15 | COC(=O)C1=C(C(=O)OC)SC2(S1)C(C(=O)OC)=C(C(=O)OC)Sc1c2ssc1=O | 2.33 | 1.55 | 8.76 | 2.3 | 4.65 | 3.88 | 13.4 | 3.26 | 3.15 | 27.6
